We go through two compounds from patent publication US12319699B2, “L-proline sulfonamide derivatives comprising pyrazolo[4,3-e]tetrazolo[4,5-b][1,2,4]triazine system, method of manufacturing thereof, uses thereof and pharmaceutical composition comprising the same” (UNIWERSYTET MEDYCZNY W BIALYMSTOKU, priority 2018, dated 2025).

Experiment [1] relates to HT-29 colorectal cancer cells. As to the kind of experiment: Induction of apoptosis, Annexin V-FITC / propidium iodide flow cytometry. It is filed as cell-based, human. The conditions noted are these: 24 hours. Here is the method:
HT-29 human colorectal cancer cells (ATCC HTB-38, Manassas, VA, USA) were cultured in McCoy's 5A medium supplemented with 10% fetal bovine serum (FBS), 2 mM glutamine, 50 U/ml penicillin, 50 μg/ml of streptomycin at 37° C., in atmosphere containing 5% CO2. Subsequently, the cells were counted in a hemocytometer and were transferred in the amount of 1×10^6 cells per well in 1 ml of culture medium from Costar flasks (Sigma, USA) to Nunc 6-well plates (Wiesbaden, Germany). The cells were transferred using calcium-free phosphate buffer with the addition of 0.05% trypsin and 0.02% EDTA. […] Within the subsequent 24 hours the cells covered at least 80% of the surface of each plate well. The cells prepared in this manner were incubated with the examined compounds for 24 hours and then used for further experiments.
Induction of apoptosis was examined by a method using fluorescein isothiocyanate-labelled Annexin V (Annexin V-FITC) which forms complexes with phosphatidylserine in the presence of calcium ions. The complexes were determined using FITC Annexin V Apoptosis Detection Kit II (BD Biosciences, USA) and a flow cytometer BD FACSCanto H (BD Biosciences Systems, San Jose, CA, USA). The analysis of results was carried out by means of FACSDiva software (BD Biosciences Systems, San Jose, CA USA).
DLD-1 and HT-29 cells were incubated for 24 hours in an incubator at 37° C. in a 5% CO2 atmosphere with medium containing the examined compounds according to the invention at specific concentrations. Both examined compounds were used at a concentration of 1.5 μM and 3.0 μM. After the incubation period, the medium was removed, a binding buffer included in the kit was added and the cells were suspended in the buffer. In order to calibrate the apparatus two control samples, i.e. a positive one and a negative one, were prepared. The positive control constituted a reference of control cells in which apoptosis was induced by the addition of 3% formaldehyde. Three control samples were prepared. The first sample contained control cells and propidium iodide, the second sample contained control cells and Annexin V-FITC and the third sample contained control cells, propidium iodide and Annexin V-FITC. After adding 2 μl of 3% formaldehyde the cells were placed in a refrigerator for 10 minutes. Cells that were not treated with any agent constituted the negative control. The cells from the control samples and the cells treated by the examined compounds according to the invention (1×10^6 cells/ml) suspended in the buffer included in the kit were subjected to further examination. 200 μl suspension were taken from each examined sample and were transferred to test tubes. 3 μl Annexin V-FITC and 5 μl propidium iodide (PI) were added to each sample in room temperature and the samples were placed in a dark place for 15 minutes. Cell suspension prepared in this manner was analyzed within one hour in the flow cytometer BD FACSCanto II (BD Biosciences Systems, San Jose, CA, USA) by means of FACSDiva software. The results of the above experiment can be described as follows: live cells (double negative sample—lack of reaction with Annexin V and P), early apoptosis (Annexin V positive and PI negative sample), late apoptosis (Annexin V positive and PI positive sample) and necrosis (Annexin V negative and PI positive sample)
On the technique in general: In flow cytometry, cells or beads pass a laser one at a time.

The subject of experiment [2] is DLD-1 human colorectal cancer cells. As to the kind of experiment: Cytotoxicity, MTT assay (Carmichael's method), cell survival. The experiment is classed as cell-based. Conditions: DLD-1, 24-hour incubation. On the procedure: DLD-1 human colorectal cancer cells (ATCC CCL-221, Manassas, VA, USA) were grown in DMEM (Dulbecco's Modified Eagle's Medium) supplemented with 10% fetal bovine serum (FBS), 2 mM glutamine, 50 U/ml penicillin, 50 μg/ml streptomycin at 37° C., in atmosphere containing 5% of CO2. Then the cells were counted in a hemocytometer and transferred in the amount of 1×10^6 cells per well in 1 ml of culture medium from Costar flasks (Sigma, USA) to Nunc 6-well plates (Wiesbaden, Germany). The cells were transferred using calcium-free phosphate buffer with the addition of 0.05% trypsin and 0.02% EDTA. […] Within the subsequent 24 hours the cells covered at least 80% of the surface of each plate well. […]
Cytotoxicity of the examined compounds according to the invention was measured by Carmichael's method (Carmichael J et al, Cancer Res., 1987, 47:943-946) and cell viability was determined using the tetrazolium salt (MT) in MTT assay. […] In a cell lysate prepared in such manner absorbance at 630 nm was measured. The result of absorbance obtained in the control cell cultures was assumed to be 100%. The viability of cells incubated in the presence of the examined compounds was expressed as percentage of the control values. The significance level p was determined by the nonparametric Mann-Whitney U test by means of SigmaStat software. […]

Where [3] appears, read: HT-29, 1.5 μM, listed as compound of Formula 2.

Consider `COC(=O)C1CCCN1S(=O)(=O)c1ccc(-n2nc(C)c3nc4nnnn4nc32)cc1` (stereo not drawn) [Compound of Formula 2, Methyl 1-[4-(7-methyl-5H-pyrazol[4,3-e]tetrazolo[4,5-b][1,2,4]triazyn-5-yl)phenylsulfonyl]pyrrolidine-2-carboxylate], for which, in experiment [1] (HT-29, 1.5 μM), the Early apoptosis was determined as 9.0%, the Late apoptosis was 4.7%, the Live cells was 85.3% and the Necrosis is reported as 1.0%. In addition, in experiment [1] (setting [3]), the Early apoptosis was 9.0%, the Late apoptosis stood at 4.7% and the Necrosis worked out at 1.0%. In addition, in experiment [1] (HT-29, 3.0 μM), the Early apoptosis turned out to be 9.6%, the Late apoptosis amounted to 9.4%, the Live cells stood at 78.3% and the Necrosis amounted to 2.7%. In addition, the “apoptotic cells (total)” value in experiment [1] (HT-29, 3.0 μM) is 19.0%. In addition, the Necrosis in experiment [1] (HT-29, 3.0 μM, listed as compound of Formula 2) turned out to be 2.7%. Besides, the midpoint of inhibition in experiment [2], the IC50, lay at 1100 ± 10 nM.

In experiment [1] (HT-29, 1.5 μM), `COC(=O)C1CC(O)CN1S(=O)(=O)c1ccc(-n2nc(C)c3nc4nnnn4nc32)cc1` (stereo not drawn) [Compound of Formula 3, Methyl 4-hydroxy-1-[4-(7-methyl-5H-pyrazolo[4,3-e]tetrazolo[4,5-b][1,2,4]triazyn-5-yl)phenylsulfonyl]pyrrolidine-2-carboxylate] came in with an Early apoptosis of 14.5%, a Late apoptosis of 16.0%, a Live cells of 65.0% and a Necrosis of 4.5%. In addition, the “early and late apoptotic cells (total)” value in experiment [1] (HT-29, 1.5 μM) was determined as 30.5%. In addition, in experiment [1] (HT-29, 1.5 μM, listed as compound of Formula 3), the Necrosis was 4.5%. In experiment [1] (HT-29, 3.0 μM), the Early apoptosis was 25.2%, the Late apoptosis is 13.7% and the Necrosis is 2.6%. In experiment [2], this compound displayed a half-maximal inhibitory concentration (IC50) of 3100 ± 20 nM.

One may read the IC50 as the concentration that inhibits the measured activity by half. Higher therefore signals weaker potency.
